The results in this text go back to BindingDB's records for doi:10.1016/s0960-894x(00)00161-x (University of Tokyo, 2000).

A short description of this assay: Inhibition of Beta-glucosidase activity.

The IC50 is the point on the concentration scale where inhibition reaches its midpoint. Low readings indicate greater potency in that assay, high ones weaker potency in that assay.

Where only a bound is given, the exact number is not on record here.

In turn, `O=C1c2c(Cl)c(Cl)c(Cl)c(Cl)c2C(=O)N1CCc1ccccc1` [4,5,6,7-Tetrachloro-2-phenethyl-isoindole-1,3-dione] had an IC50 of more than 500 µM.

`O=C1c2ccccc2C(=O)N1c1ccccc1` [2-Phenyl-isoindole-1,3-dione]: the IC50 was more than 500 µM.

`O=C1c2c(Cl)c(Cl)c(Cl)c(Cl)c2C(=O)N1Cc1ccccc1` [2-Benzyl-4,5,6,7-tetrachloro-isoindole-1,3-dione] registered an IC50 of more than 500 µM.

`O=C1c2c(Cl)c(Cl)c(Cl)c(Cl)c2C(=O)N1CCCc1ccccc1` [4,5,6,7-Tetrachloro-2-(3-phenyl-propyl)-isoindole-1,3-dione] registered an IC50 of more than 500 µM.

`O=C1c2c(Cl)c(Cl)c(Cl)c(Cl)c2C(=O)N1CCCCCCc1ccccc1` [4,5,6,7-Tetrachloro-2-(6-phenyl-hexyl)-isoindole-1,3-dione]: the IC50 is more than 500 µM.

With `O=C1c2c(Cl)c(Cl)c(Cl)c(Cl)c2C(=O)N1CCCCCc1ccccc1` [4,5,6,7-Tetrachloro-2-(5-phenyl-pentyl)-isoindole-1,3-dione], the IC50 is more than 500 µM.

In the case of `O=C1c2ccccc2C(=O)N1CCCc1ccccc1` [2-(3-Phenyl-propyl)-isoindole-1,3-dione], the IC50 was more than 500 µM.

For the compound `O=C1c2ccc(O)cc2C(=O)N1c1ccccc1` [5-hydroxy-2-phenylisoindoline-1,3-dione], the IC50 is more than 500 µM.

`O=C1c2ccc([N+](=O)[O-])cc2C(=O)N1c1ccccc1` [5-Nitro-2-phenyl-isoindole-1,3-dione] registered an IC50 of more than 500 µM.

In the case of `O=C1c2cccc(O)c2C(=O)N1c1ccccc1` [4-Hydroxy-2-phenyl-isoindole-1,3-dione], the IC50 is more than 500 µM.

For the compound `O=C1c2ccccc2C(=O)N1CCc1ccccc1` [2-Phenethyl-isoindole-1,3-dione], the IC50 was more than 500 µM.

With `Nc1ccc2c(c1)C(=O)N(c1ccccc1)C2=O` [5-Amino-2-phenyl-isoindole-1,3-dione], the IC50 is more than 500 µM.

The compound `O=C1c2c(Cl)c(Cl)c(Cl)c(Cl)c2C(=O)N1CCCCc1ccccc1` [4,5,6,7-tetrachloro-2-(4-phenylbutyl)isoindoline-1,3-dione] returned an IC50 of more than 500 µM.

As for `O=C1c2cccc([N+](=O)[O-])c2C(=O)N1c1ccccc1`, the IC50 is more than 500 µM.
